This note sets out measurements from PubChem BioAssay AID1996.

In general, solubility (kinetic) refers to the concentration staying in solution when a stock, usually in DMSO, is diluted into the medium.

Values after ≈ are worked out from the molar mass of the structure shown.

For this data set the following is noted: buffer; pH 7.4; 200.0 µM.
The compound `Cl.ClC(CCN1CCN(Cc2ccccc2)CC1)c1ccccc1` (centres undefined) yielded a solubility (kinetic) above 60.3 µg/mL. Then `O=C(Nc1ccccc1N1CCCC1)c1cccc(F)c1`, with above 42.6 µg/mL. Then `CC(C)(C)c1ccc(C(=O)NCC(=O)N2CCCC2)cc1`, with above 43.3 µg/mL. In the case of `O=C(NCCCO)c1c(O)c2cccc3c2n(c1=O)CCC3` it was above 45.3 µg/mL; in that of `CCC(CC)NC(=O)c1cccc(Br)c1`, 38.1 µg/mL (≈ 141 µM). `O=C(Nc1ccc2c(c1)OCO2)C1CC(=O)N(c2ccc3c(c2)OCCO3)C1` (centres undefined) showed a kinetic solubility of 3.6 µg/mL (≈ 9.41 µM). In the case of `COc1cccc(-c2nc(-c3ccncc3)no2)c1` it was 3.5 µg/mL (≈ 13.8 µM); in that of `C=CCNC(=O)COc1ccc(S(=O)(=O)N2CCCC2)cc1`, above 48.7 µg/mL. In the case of `Cc1ccc(CNc2nc(-c3cccnc3)nc3ccccc23)cc1` it was 2.5 µg/mL (≈ 7.66 µM); in that of `CCOc1ncccc1C(=O)NCC(c1ccco1)N1CCCCC1` (centres undefined), above 51.5 µg/mL.

`CCCCN1C(=O)N(c2ccccc2Cl)C(C)(O)CC1(C)C` (centres undefined): the kinetic solubility amounted to 47.6 µg/mL (≈ 147 µM). In the case of `CN1CCN(c2ccccc2/C=C2/C(=O)Nc3ccccc32)CC1` it was above 47.9 µg/mL. In the case of `O=C(NC1CC(=O)N(c2ccccc2)C1)C1CC1` (centres undefined) it was above 36.6 µg/mL; in that of `Cc1cc(C(=O)Nc2ccc(C#N)cc2)on1`, 10.3 µg/mL (≈ 45.3 µM). Then `O=C(CN1C(=O)c2cccc3cccc1c23)NC1CCCC1`, with 4.4 µg/mL (≈ 14.9 µM); and `CC1CN(CC(=O)NCc2ccccc2)CC(C)O1` (centres undefined), with 36.1 µg/mL (≈ 138 µM); and `Cc1cccc(NC(=S)NCCc2ccccn2)c1`, with above 40.7 µg/mL. `CCOc1ccccc1NC(=O)c1ccc2c(c1)C(=O)N(CC(C)C)C2=O` displayed a kinetic solubility below 0.4 µg/mL. Turning to `NC(=O)Nc1ccc(C(=O)OCC(=O)N2CCCC2=O)cc1`, the kinetic solubility was above 45.8 µg/mL. In the case of `Nc1ccc2nc(CCCCCCc3nc4ccc(N)cc4[nH]3)[nH]c2c1` it was above 52.3 µg/mL. In the case of `CCCC(=O)Nc1ccc(NCc2ccc(C)s2)cc1` it was above 43.3 µg/mL; in that of `Cc1ccccc1OCCCN1CCOCC1`, 31.3 µg/mL (≈ 133 µM). Then `CCCC(=O)NC(=S)Nc1cc(-c2nc3ncccc3o2)ccc1C`, with 0.5 µg/mL (≈ 1.41 µM); and `NC(=O)c1ccc(S(=O)(=O)N2CCSCC2)cc1`, with 37.9 µg/mL (≈ 132 µM). In turn, `Cc1ccc(C(=O)Nc2ccc(Nc3ccccc3)cc2)cc1Br` had a solubility (kinetic) below 0.4 µg/mL.

As to `Cc1ccc(Sc2ncccc2NC(=O)c2ccccc2Cl)cc1`, the solubility (kinetic) is 2 µg/mL (≈ 5.64 µM). Consider `Clc1nc(N2CCOCC2)ncc1Br`, for which the kinetic solubility was above 41.8 µg/mL. Then `Cc1ccc(C)c(N2CCN(C(=O)C3CCC3)CC2)c1`, with above 40.9 µg/mL. `CC(=O)c1ccc(NC(=O)c2cnsn2)cc1` returned a kinetic solubility of 29.1 µg/mL (≈ 118 µM).

In turn, `Cc1nn(CC(=O)NC2CCC(C)CC2)c(=O)c(C#N)c1C` (centres undefined) yielded a kinetic solubility above 45.4 µg/mL. In the case of `COc1ccccc1NC(=O)COC(=O)CCC1CCCC1` it was 42.1 µg/mL (≈ 138 µM); in that of `COc1cc(N2CCCC2)ccc1C=O`, 29 µg/mL (≈ 141 µM); in that of `CCOc1ccc(Cc2noc3c2C(=O)CC(C)(C)C3)cc1OCC`, 46.4 µg/mL (≈ 135 µM).

In the case of `Cc1ccc(-n2c(SCC(=O)N(C)C3CCS(=O)(=O)C3)nc3ccccc3c2=O)c(C)c1` (centres undefined), the kinetic solubility was above 70.7 µg/mL. `Cc1c(N(C)CS(=O)(=O)O)c(=O)n(-c2ccccc2)n1C.[Na]`: the solubility (kinetic) is above 50.2 µg/mL. Then `S=P(N1CC1)(N1CC1)N1CC1`, with above 28.4 µg/mL; and `O=C1Nc2ccccc2Nc2ccccc21`, with 20.9 µg/mL (≈ 99.4 µM); and `Cc1ccc(N(Cc2ccccc2)C(=O)c2cccc(F)c2)cc1`, with 11.1 µg/mL (≈ 34.8 µM). In the case of `Cn1nccc1C(=O)NC1CCN(Cc2ccccc2)CC1` it was above 44.8 µg/mL. `CN1C(=O)/C(=C2\SC(=S)N(CCCCCC(=O)O)C2=O)c2ccccc21`: the solubility (kinetic) was found to be 6 µg/mL (≈ 15.4 µM). In the case of `Cc1cc(C(=O)Nc2ccc(F)c(Cl)c2)on1` it was 18.3 µg/mL (≈ 71.9 µM); in that of `COc1ccc(N(CC(=O)Nc2cccnc2)S(C)(=O)=O)cc1`, above 50.3 µg/mL; in that of `CC(C)(C)Nc1c(-c2ccc(O)cc2)nc2ccc(Cl)cn12`, 0.4 µg/mL (≈ 1.27 µM). In the case of `CCOc1ccc(NC(=O)CCC(=O)c2ccc(OC)cc2)cc1` it was 3 µg/mL (≈ 9.16 µM). Then `CC1(c2ccccc2Cl)NC(=O)N(CC(=O)Nc2ccc(N3CCOCC3)cc2)C1=O` (centres undefined), with above 66.4 µg/mL; and `CCOc1cc(NC(=O)CCl)c(OCC)cc1NC(=O)CCl`, with 6.8 µg/mL (≈ 19.5 µM). Compound `Cc1ccc(NC(=O)C2CCCC2)c(Br)c1` had a kinetic solubility of 8.6 µg/mL (≈ 30.5 µM). Take `CCCCn1c(SCC(=O)Nc2cc(C)on2)nnc1-c1ccncc1`: the kinetic solubility is above 55.9 µg/mL. Take `O=C(NC1CCN(C(=O)Nc2cccc(Cl)c2)CC1)c1ccccc1`: the solubility (kinetic) was 0.4 µg/mL (≈ 1.12 µM). In turn, `COc1cccc(C(=O)NCCCNC(=O)c2cccnc2)c1` registered a kinetic solubility above 47 µg/mL. In the case of `O=C(CSC(=S)N1CCCCC1)c1c(F)cccc1F` it was 4 µg/mL (≈ 12.7 µM). In the case of `Cc1ccc(N(CC(=O)N2CCCC2)S(C)(=O)=O)cc1C` it was above 46.6 µg/mL; in that of `O=Cc1c(SCCO)nc2ccccn2c1=O`, 17.6 µg/mL (≈ 70.3 µM). Then `CN(Cc1ccccc1)C1CCNCC1.Cl`, with above 41.6 µg/mL. For the compound `CC(=O)OCCCN(C)CC/C=C1/c2ccccc2CSc2ccccc21.Cl`, the solubility (kinetic) worked out at 53.8 µg/mL.

Turning to `CC(C)Nc1nc2cccnc2s1`, the kinetic solubility is above 29 µg/mL. Regarding `CCn1c(COc2ccc(C)cc2)nc2ccccc21`, the solubility (kinetic) is 2.2 µg/mL (≈ 8.26 µM). In the case of `CCCC/C(O)=C1\C(=O)CCCC1=NCCc1c(C)[nH]c2ccccc12` it was 14.3 µg/mL (≈ 40.6 µM); in that of `COc1ccc(NC(C)=O)cc1NC(=O)c1ccc(Cl)cc1`, 17.2 µg/mL (≈ 54 µM). Then `CS(=O)(=O)c1ccc(C(=O)NCc2ccc(F)cc2)cc1`, with 38.5 µg/mL (≈ 125 µM). In the case of `Cc1ccc(NC(=O)Nc2cc(S(C)(=O)=O)ccc2Cl)cc1` it was 1.1 µg/mL (≈ 3.25 µM); in that of `Cc1nc(C(F)(F)F)ccc1C(=O)N1CCCCC1`, 36.5 µg/mL (≈ 134 µM). `Cc1ccc(NC(=O)CN(C)C(=O)c2ccc(NS(=O)(=O)c3cccc([N+](=O)[O-])c3)cc2)cc1` displayed a kinetic solubility of 11.6 µg/mL (≈ 24 µM). `COc1cc(S(=O)(=O)N2CCN(Cc3ccc4c(c3)OCO4)CC2)ccc1NC(C)=O.Cl`: the solubility (kinetic) was determined as 10.5 µg/mL. Then `CCCN(CC1CC1)C(=S)NC(=O)C1CC1`, with above 36.1 µg/mL. In the case of `Cc1cc(NC(=O)C(=O)NCc2cccc(Cl)c2)no1` it was 3.2 µg/mL (≈ 10.9 µM); in that of `Cc1ccc(-c2nc(CNC(=O)c3cc(C)on3)cs2)cc1`, 35.4 µg/mL (≈ 113 µM); in that of `C#CCn1cnc2c(oc3ccccc32)c1=O`, above 33.6 µg/mL. Then `Cc1cccc(NC(=O)c2cc3ccccc3nc2C)c1`, with 29.3 µg/mL (≈ 106 µM); and `O=C(COc1ccc2c(c1)OCO2)Nc1ccc(Cl)cn1`, with 1.3 µg/mL (≈ 4.24 µM).

As to `Cc1cnc(NC(=O)CCN2C(=O)C3CCCCC3C2=O)s1` (centres undefined), the solubility (kinetic) stood at 39.3 µg/mL (≈ 122 µM). `CN(C)c1ccc(NC(=O)CN2C(=O)c3ccccc3C2=O)cc1` returned a solubility (kinetic) of 11.3 µg/mL (≈ 34.9 µM). Compared with the last compound, the solubility kinetic is about 3.5-fold lower. In the case of `CCc1ccccc1NC(=O)CC1SCCNC1=O` (centres undefined) it was above 41.8 µg/mL. Then `CC(=O)C1=C(O)C(=O)N(Cc2ccco2)C1c1ccccc1F` (centres undefined), with above 47.3 µg/mL. `Cc1ccccc1OCC(=O)NCCCNC(=O)c1ccncc1`: the kinetic solubility is 39.8 µg/mL (≈ 122 µM). Compound `CC(C)(C)NC(=O)COc1ccc2oc3c(c2c1)CCCC3` displayed a solubility (kinetic) of 2.2 µg/mL (≈ 7.3 µM).

For the compound `Cc1nc(N2CCOCC2)[nH]c(=O)c1C(O)C(Cl)(Cl)Cl` (centres undefined), the solubility (kinetic) turned out to be 47.1 µg/mL (≈ 137 µM). This solubility kinetic lies about 21-fold higher than the previous one. Turning to `Cc1cccc(-c2noc(-c3ccno3)n2)c1`, the solubility (kinetic) is 4.8 µg/mL (≈ 21.1 µM). In the case of `CSc1ncccc1C(=O)OCC(=O)c1cc(C)n(C)c1C` it was 3.9 µg/mL (≈ 12.2 µM); in that of `CC1CC(C)CN(C(=O)Cn2cc(C=O)c3ccccc32)C1` (centres undefined), above 44.8 µg/mL; in that of `CCC(=O)N(CCc1ccccc1)Cc1cc2cccc(C)c2[nH]c1=O`, 2.3 µg/mL (≈ 6.6 µM).

Compound `O=C1CCCN1CC1CCN(Cc2nc(CC3CC3)no2)CC1` displayed a solubility (kinetic) of 42.9 µg/mL (≈ 135 µM). The compound `Cn1c(O)c(C=Nc2cccc(C(F)(F)F)c2)c(=O)n(C)c1=O` registered a solubility (kinetic) of 10.6 µg/mL (≈ 32.4 µM).

For the compound `CC1CCCC(NC(=O)c2ccc(COc3ccccc3)o2)C1C` (centres undefined), the solubility (kinetic) was found to be 2.2 µg/mL (≈ 6.72 µM).

In turn, `CCOc1ncccc1C(=O)OCC(=O)c1ccc(C)c(C)c1` returned a kinetic solubility of 17 µg/mL (≈ 54.3 µM). In the case of `CCC(OC(=O)c1nsc(Cl)c1Cl)C(=O)NCC1CCCO1` (centres undefined) it was 52.8 µg/mL (≈ 144 µM).

In turn, `O=C(Cc1ccc(Cl)cc1)NNC(=O)C1CC=CCC1C(=O)O` (centres undefined) yielded a kinetic solubility above 50.5 µg/mL.

In the case of `c1ccc2c(OCCCCN3CCCC3)cccc2c1`, the solubility (kinetic) worked out at 40.1 µg/mL (≈ 149 µM).

`COc1ccc(CN(C)C(=O)COC(=O)c2cc([N+](=O)[O-])ccc2N2CCCC2)c(OC)c1OC`: the kinetic solubility amounted to 10.2 µg/mL (≈ 20.9 µM). Consider `Cn1c(N)c(C(=O)COC(=O)CNC(=O)c2ccccc2)c(=O)n(C)c1=O`, for which the solubility (kinetic) was above 56.2 µg/mL. In the case of `Cc1nc(NC(=O)c2cc3ccccc3o2)sc1C` it was 3.1 µg/mL (≈ 11.4 µM); in that of `COc1ccc(NC(=O)COC(=O)C23CC4CC(CC(O)(C4)C2)C3)cc1Cl`, above 59.1 µg/mL. Then `Cc1cc(C(=O)Nc2ccccc2Cl)c2ccccc2n1`, with 36.8 µg/mL (≈ 124 µM); and `O=C(COc1ccccc1F)Nc1ccc2c(c1)OCCO2`, with 14.1 µg/mL (≈ 46.5 µM). Then `CCCC12CN3CCN(C1)CC(CCC)(C3)C2=O`, with 30.9 µg/mL (≈ 123 µM).

As to `O=C(O)CCC(=O)Nc1cccc(-c2nc3ccccc3o2)c1`, the solubility (kinetic) is above 46.5 µg/mL.

`Cc1ccccc1NC(=O)CCN1CCN(CCO)CC1` had a solubility (kinetic) of 42.4 µg/mL (≈ 146 µM). Then `O=C(CSc1nnc(C2CC2)n1Cc1ccccc1)N1CCNC1=O`, with above 53.6 µg/mL; and `Cc1cc(/C=C2\SC(=O)NC2=O)c(C)n1-c1ccc(N(C)C)cc1`, with below 0.2 µg/mL; and `CN(C)S(=O)(=O)c1cccc(C(=O)NCC2CCCCC2)c1`, with 2.8 µg/mL (≈ 8.63 µM).

`C/C(CC(=O)Nc1ccccn1)=N\NC(=O)c1cnccn1` came in with a kinetic solubility above 44.7 µg/mL. In the case of `O=C(OCC(=O)N1CCCCC1)c1cccs1` it was above 38 µg/mL; in that of `O=C(NC1CCCC1)C(c1cc2c(cc1[N+](=O)[O-])OCO2)N1CCCC1` (centres undefined), 40.6 µg/mL (≈ 112 µM); in that of `CC(C)CC(=O)NC(=S)Nc1ccc(CN2CCOCC2)cc1`, above 50.3 µg/mL.
